Assay results taken from patent publication US7655225B2, “Methods of expanding stem and progenitor cells and expanded cell populations obtained thereby” (Gamida Cell, Ltd., priority 2002, dated 2010).

Legend:
CD34+ cells [1] = assay: Ex vivo expansion of purified CD34+ cells in liquid culture: cell enumeration and FACS of subsets; format: cell-based, human; conditions: three weeks, 5, 10 or 20 μM
Method: Sample collection and processing: Samples were obtained from umbilical human cord blood and processed within 12 hours. The blood cells were mixed with 3% Gelatin (Gigma, St. Louis, Mo.) and allowed to sediment for 30 minutes to remove most red blood cells. The leukocyte-rich fraction was harvested, layered on Ficoll-Hypaque (density 1.077 gram/ml; Sigma) and centrifuged at 400 g for 30 minutes at room temperature. The mononuclear cells in the interface layer were then collected, washed three times in phosphate-buffered saline (PBS; Biological Industries), and re-suspended in PBS solution which contains 1% bovine serum albumin (BSA; Sigma). The cells were then incubated at 4° C. for 30 minutes with murine monoclonal anti CD34^+ antibody (0.5 μg/10^6 mononuclear cells) and were thereafter isolated using two cycles of immuno-magnetic separation using the miniMACS CD34^+ Progenitor Cell Isolation Kit (Miltenyi-Biotec, Auburn, Calif.) according to the manufacturer's recommendations. The purity of the CD34^+ cells obtained ranged between 95% and 98%, based on Flow Cytometry evaluation (see below). Ex vivo expansion of progenitor cells: Enriched CD34^+ cell fractions were cultures in 24-well Costar Cell Culture Clusters (Corning Inc., Corning, N.Y.) or in Culture Bags (American Fluoroseal Corp.) with alpha minimal essential medium supplemented with 10% fetal bovine serum (FBS, Biological Industries), at about 1-3×10^4 cells/ml medium. The media were further supplemented with the following human recombinant cytokines (all obtained from Perpo Tech, Inc., Rocky Hill, N.J.): Thrombopoietin (TPO), 50 ng/ml; interleukin 6 (IL-6), 50 ng/ml; FLT-3 ligand, 50 ng/ml; and IL-3, 20 ng/ml. The cultures were incubated at 37° C. in an atmosphere of 5% CO2 in air with extra humidity. At weekly intervals cell cultures were semi-depopulated and supplemented with fresh medium containing the cytokines. Following different incubation periods, the cells were harvested, stained with trypan blue and enumerated. The total cell counts, numbers of CD34^+ cells and subsets thereof, and the number of colony-forming cells (CFU) are presented herein as cumulative numbers, with the assumption that the cultures had not been passaged, namely, the numbers of cells per ml were multiplied by the number of passages performed. Surface antigen analysis: At different time intervals, the cultured cells were harvested, washed with a PBS solution containing 1% BSA and 0.1% sodium azide (Sigma), and stained, at 4° C. for 60 minutes, with FITC-labeled anti CD45 monoclonal antibody and either PE-labeled anti CD34 (HPCA-2) monoclonal or PE-labeled control mouse Ig (all from Immunoquality Products, the Netherlands). The cells were then washed with the same PBS solution and were analyzed by a flow cytometer, as described hereinafter. Flow cytometry analysis: Cells were analyzed and sorted using FACS caliber flow cytometer (Becton-Dickinson, Immunofluorometry systems, Mountain View, Calif.). Cells were passed at a rate of 1,000 cells/second through a 70 μm nozzle, using a saline sheath fluid. A 488 nm argon laser beam at 250 mW served as the light source for excitation. Fluorescence emission of ten thousand cells was measured using a logarithmic amplification and analyzed using CellQuest software. Determination of the density of stem and progenitor subset populations following expansion: Following an incubation period, the CD34^+ cells were re-selected using miniMACS Miltenyi kit. The purity of the positive fraction of selected CD34^+ cells was confirmed by FACS analysis as well as by cell morphology analysis. The density of CD34^+ cells, in proportion (percentage) to total cells, was determined directly via FACS analysis. The densities of CD34^+ subset populations were determined from the purified CD34^+ fraction. Re-selected CD34^+ cells were stained with lineage specific antigens followed by FACS analysis to determine the percentage of the subset populations within the total number of CD34^+ cells. […]

CD34+ cells [2] = assay: Self-renewal potential: colony-forming cells (CFU) from CD34+ cultures; format: cell-based, human; conditions: five-weeks culture; 10 or 20 μM, added first three weeks; FIG. 9
Source text: Ex vivo expansion of progenitor cells: Enriched CD34^+ cell fractions were cultures in 24-well Costar Cell Culture Clusters (Corning Inc., Corning, N.Y.) or in Culture Bags (American Fluoroseal Corp.) with alpha minimal essential medium supplemented with 10% fetal bovine serum (FBS, Biological Industries), at about 1-3×10^4 cells/ml medium. The media were further supplemented with the following human recombinant cytokines (all obtained from Perpo Tech, Inc., Rocky Hill, N.J.): Thrombopoietin (TPO), 50 ng/ml; interleukin 6 (IL-6), 50 ng/ml; FLT-3 ligand, 50 ng/ml; and IL-3, 20 ng/ml. The cultures were incubated at 37° C. in an atmosphere of 5% CO2 in air with extra humidity. At weekly intervals cell cultures were semi-depopulated and supplemented with fresh medium containing the cytokines. Following different incubation periods, the cells were harvested, stained with trypan blue and enumerated. The total cell counts, numbers of CD34^+ cells and subsets thereof, and the number of colony-forming cells (CFU) are presented herein as cumulative numbers, with the assumption that the cultures had not been passaged, namely, the numbers of cells per ml were multiplied by the number of passages performed. Self-renewal potential evaluations: The self-renewal potential of stem cells was determined in vitro by long-term colony formation. Cells were washed and seeded in a semi-solid methylcellulose medium supplemented with 2 IU/ml erythropoietin ([…] Int., Switzerland), stem cell factor and IL-3, both at 20 ng/ml (Perpo Tech), and G-CSF and GM-CSF, both at 10 ng/ml (Perpo Tech). The resulting colonies were scored after two weeks of incubation at 37° C. in a humidified atmosphere of 5% CO2 in air. Colonies were classified as blast, mixed, erythroid, myeloid, and megakaryocytic, according to their cellular composition.

[Cl][Cu][Cl] [copper chloride, reference compound]
number of total cells vs untreated control (CD34+ cells [1]; FIG. 8a): did not differ significantly
stem cells (CD34+) vs untreated or chelate-treated cultures (CD34+ cells [1]; FIG. 8b): fewer
CD34+ CD38− stem/progenitor subset cells vs untreated or chelate-treated cultures (CD34+ cells [1]; FIG. 8c): fewer
CD34+ Lin− stem/progenitor subset cells vs untreated or chelate-treated cultures (CD34+ cells [1]; FIG. 8d): fewer
colony-forming cells of CD34+ vs untreated or TEPA-Cu treated cultures (CD34+ cells [2]): substantially fewer
